Data: US20220274983A1, “JAK KINASE INHIBITOR AND USE THEREOF” (JIANGSU CAREPHAR PHARMACEUTICAL CO., LTD., priority 2019, published 2022)
Where a name gives a salt, the structure may show the parent alone.

Experiments:
rat CIA model [1] = experiment: Hindfoot foot volume in rat CIA model; assay type: in vivo, Lewis rats; details: CIA rats, hindfoot, 2 mg/kg oral gavage once daily for 2 w
rat CIA model [2] = experiment: Arthritis index (AI) of extremities in rat CIA model; details: CIA rats, 2 mg/kg oral gavage once daily for 2 w, score 0-16;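 further: rats immunized with type II collagen plus complete Freund's adjuvant on day 0, boosted day 7, groups of 8, each paw graded 0-4 for swelling or redness, higher means worse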
Protocol: (§1) Lewis rats (female, 10-12 weeks old) were obtained from Beijing Vital River Laboratory Animal Technology Co., Ltd. The rats were on a light and dark alternation for 12 h, and the environment was kept at a temperature of 23±2° C. and a humidity of 40-70%.
(§2) Type II collagen solution (2 mg/mL) was prepared with 0.05 M acetic acid solution to allow to be fully dissolved, and placed overnight in the dark at 4° C. During the test, 2 mg/mL type II collagen (C II) solution and 4 mg/mL complete Freund's adjuvant (CFA) solution were mixed in equal volumes under ice bath conditions to fully emulsify. On day 0, an emulsion prepared by mixing equal volumes of C II (2 mg/mL) and CFA (4 mg/mL) was injected intracutaneously into the base of the tail of experimental rats for primary immunization, and on day 7, secondary booster immunization was performed.
(§3) The therapeutic effect of the test compound was tested in a rat CIA model. The rats were randomly divided into groups with 8 animals in each group. All animals were immunized on day 0 and boosted on day 7.
Foot volume was scored for the swelling of four toes at the same time, the score for each foot was 0-4, and the highest score for each rat was 16. 0—no swelling, normal appearance; 1—mild swelling or redness of the ankle joint, wrist joint or finger joint; 2—moderate swelling or redness of the ankle joint, wrist joint or finger joint; 3—severe swelling or redness of the ankle joint, wrist joint or finger joint; 4—very severe swelling or redness of the ankle joint, wrist joint or finger joint.

[3] = rat, in vivo, 2 mg/kg
Protocol: as §1, §2, §3
Therefore, the differences in body weight and foot volume after the onset of arthritis compared with the negative group, respectively, can be used to evaluate the therapeutic effect in the rat model. The experimental data were expressed as Mean±SEM; the data between the two groups was tested by unpaired t-test and p<0.05 was considered as a significant difference.

## C[C@@H]1CCN(C(=O)CC#N)C[C@@H]1N(C)c1ncnc2[nH]ccc12 [Tofacitinib, tofacitinib citrate, reference compound]
Rat CIA model [1]; day 0
  Foot volume (ml)/Day: 2.637 ± 0.020 mL
Rat CIA model [1]; day 8
  Foot volume (ml)/Day: 2.619 ± 0.019 mL
Rat CIA model [1]; day 11
  Foot volume (ml)/Day: 2.646 ± 0.045 mL
Rat CIA model [1]; day 14
  Foot volume (ml)/Day: 3.848 ± 0.333 mL
Rat CIA model [1]; day 17
  Foot volume (ml)/Day: 4.636 ± 0.306 mL
Rat CIA model [1]; day 21
  Foot volume (ml)/Day: 4.710 mL
Rat CIA model [1]; day 24
  Foot volume (ml)/Day: 4.509 mL
Rat CIA model [1]; day 28
  Foot volume (ml)/Day: 4.125 mL
Rat CIA model [2]; day 0
  Arthritis index/Day: 0 ± 0
Rat CIA model [2]; day 8
  Arthritis index/Day: 0 ± 0
Rat CIA model [2]; day 11
  Arthritis index/Day: 0.63 ± 0.32
Rat CIA model [2]; day 14
  Arthritis index/Day: 3.75 ± 0.77
Rat CIA model [2]; day 17
  Arthritis index/Day: 5.25 ± 0.62
Rat CIA model [2]; day 21
  Arthritis index/Day: 8.75 ± 0.59
Rat CIA model [2]; day 24
  Arthritis index/Day: 8.75 ± 0.73
Rat CIA model [2]; day 28
  Arthritis index/Day: 7.88 ± 0.58
[3]
  body weight course, in words: increased slightly on days 11-17, but then fell back
